In BindingDB's records for doi:10.7270/Q2PZ577D (The Scripps Research Institute Molecular Screening Center, 2008):

Molecular target: T1, Signal transducer and activator of transcription 3 [702-738,740-752] (Homo sapiens, UniProt P40763)
T1 construct: 702-738,740-752
Assay: dose response, counter-screen for STAT1 inhibitor project (AID 1409)

T1 sequence (P40763 as listed by the source): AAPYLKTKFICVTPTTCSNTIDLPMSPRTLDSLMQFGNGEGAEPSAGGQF

CCN1C(=O)C(=CNNC(=O)c2ccncc2)C(=O)N(CC)C1=S [SMR000218837]
IC50: > 55.7 µM
